The record followed here is patent publication US8309567B2, “Spiroindoline derivatives having insecticidal properties” (priority 2003, dated 2012).

This assay has as its system Spodoptera littoralis (Egyptian cotton leafworm). Nature of the assay: Spodoptera littoralis cotton leaf disc spray test. The following applies: 200 ppm sprayed on cotton leaf discs, L1 larvae, 3 days after treatment; mortality, repellent effect, feeding behaviour, growth regulation. It counts as in vivo. The method, then:
This Example illustrates the pesticidal/insecticidal properties of compounds of formula (I). Test against were performed as follows:
Spodoptera littoralis (Egyptian cotton leafworm)
Cotton leaf discs were placed on agar in a 24-well microtiter plate and sprayed with test solutions at an application rate of 200 ppm. After drying, the leaf discs were infested with 5 L1 larvae. The samples were checked for mortality, repellent effect, feeding behaviour, and growth regulation 3 days after treatment (DAT). The following compounds gave at least 80% control of Spodoptera littoralis: CIII-49.

`O=C(c1ccnc(Cl)c1)N1C[C@]2(CCN(C/C=C/c3ccc(Cl)cc3)C[C@H]2O)c2cc(Cl)ccc21` [CIII-49, 5-chloro-1-(2-chloropyridin-4-yl)carbonyl-1′-[trans-3-(4-chlorophenyl)allyl]-3′-hydroxy-spiro[indoline-3,4′-piperidine]]: the “control of Spodoptera littoralis” value was “at least 80%”.
